In patent US20240325398A1, “COMBINATION THERAPIES” (Infinity Pharmaceuticals, Inc., priority 2014, published 2024):

Tested on: DOHH2
Experiment: Compound 1 with dexamethasone, CellTiter-Glo viability 72 h, combination index
Type: cell-based
Conditions: DOHH2
Protocol: The effects of Compound 1 with dexamethasone were examined in a panel of cell lines. Cells were cultured and assayed as follows. Compound 1 was serially diluted with cell culture medium and various DMSO concentrations. The top concentration of Compound 1 exposed to cells was 3 uM for cell lines other than WSU-NHL and DOHH2. For WSU-NHL and DOHH2 cell lines, the top concentration of Compound 1 exposed to the cells was 0.3 uM. Dexamethasone was serially diluted in culture media and phosphate buffered saline (PBS). The top concentration of dexamethasone used on cells was 3 uM. Cells were at least 73% viable and were counted and diluted for plating at a density of about 92,000 cell/mL, 130 uL cells per well in 96 well plates for SUDHL6, Karpas 422, SUDHL4, WSU-NHL, RL, and DOHH2 cell lines. The SUDHL10 cell line was plated at a density of about 46,000 cells/mL, 130 uL cells per well in 96 well plates.
Various concentrations of Compound 1 and various combinations of dexamethasone were added to various wells of cells. Single agents (Compound 1 or dexamethasone alone) were also added to some wells of cells. Cells were incubated with compounds for 72 hours. To assay for effects of the compounds on cell viability, a CellTiter-Glo® luminescent cell viability assay (commercially available) was used. To each plate of cells, 100 uL CellTiter-Glo reagent was added, incubated, and luminescence quantified using a […].
The results for cell line DOHH2 are depicted in FIG. 11 and Table 11. […] Table 11 depicts combination index (CI) values for different combinations of dexamethasone/Compound 1 concentrations.

`C[C@H](Nc1ncnc2[nH]cnc12)c1cc2cccc(Cl)c2c(=O)n1-c1ccccc1` [Compound 1, (S)-3-(1-((9H-purin-6-yl)amino)ethyl)-8-chloro-2-phenylisoquinolin-1(2H)-one] was tested. Which “combination index (CI)” value (Compound 1 0.137174 nM + Dexamethasone 1.371742 nM) did it give?
Its value is “E (E = >1)”.

What about the “combination index (CI)” value (Compound 1 0.137174 nM + Dexamethasone 4.115226 nM) of the same compound?
Its value is “E (E = >1)”.

And the “combination index (CI)” value (Compound 1 0.137174 nM + Dexamethasone 12.34568 nM)?
Its value is “E (E = >1)”.

What about the “combination index (CI)” value (Compound 1 0.137174 nM + Dexamethasone 37.03704 nM) of the same compound?
Its value is “E (E = >1)”.

And the “combination index (CI)” value (Compound 1 0.137174 nM + Dexamethasone 111.1111 nM)?
The value was “C (C = 0.5 to <0.7)”.

What about the “combination index (CI)” value (Compound 1 0.137174 nM + Dexamethasone 333.3333 nM) of the same compound?
Its value is “A (A = 0.0001 to <0.3)”.

And the “combination index (CI)” value (Compound 1 0.137174 nM + Dexamethasone 1000 nM)?
The value was “A (A = 0.0001 to <0.3)”.

What about the “combination index (CI)” value (Compound 1 0.137174 nM + Dexamethasone 3000 nM) of the same compound?
The value was “A (A = 0.0001 to <0.3)”.

What about the “combination index (CI)” value (Compound 1 0.411523 nM + Dexamethasone 1.371742 nM) of the same compound?
Its value is “E (E = >1)”.

And the “combination index (CI)” value (Compound 1 0.411523 nM + Dexamethasone 4.115226 nM)?
Its value is “E (E = >1)”.

What about the “combination index (CI)” value (Compound 1 0.411523 nM + Dexamethasone 12.34568 nM) of the same compound?
Its value is “E (E = >1)”.

And the “combination index (CI)” value (Compound 1 0.411523 nM + Dexamethasone 37.03704 nM)?
The value was “E (E = >1)”.

And the “combination index (CI)” value (Compound 1 0.411523 nM + Dexamethasone 111.1111 nM)?
The value was “C (C = 0.5 to <0.7)”.

What about the “combination index (CI)” value (Compound 1 0.411523 nM + Dexamethasone 333.3333 nM) of the same compound?
Its value is “B (B = 0.3 to <0.5)”.

What about the “combination index (CI)” value (Compound 1 0.411523 nM + Dexamethasone 1000 nM) of the same compound?
The value was “A (A = 0.0001 to <0.3)”.

And the “combination index (CI)” value (Compound 1 0.411523 nM + Dexamethasone 3000 nM)?
Its value is “A (A = 0.0001 to <0.3)”.

And the “combination index (CI)” value (Compound 1 1.234568 nM + Dexamethasone 1.371742 nM)?
Its value is “E (E = >1)”.

What about the “combination index (CI)” value (Compound 1 1.234568 nM + Dexamethasone 4.115226 nM) of the same compound?
The value was “E (E = >1)”.

And the “combination index (CI)” value (Compound 1 1.234568 nM + Dexamethasone 12.34568 nM)?
Its value is “E (E = >1)”.

What about the “combination index (CI)” value (Compound 1 1.234568 nM + Dexamethasone 37.03704 nM) of the same compound?
The value was “E (E = >1)”.

What about the “combination index (CI)” value (Compound 1 1.234568 nM + Dexamethasone 111.1111 nM) of the same compound?
The value was “B (B = 0.3 to <0.5)”.

What about the “combination index (CI)” value (Compound 1 1.234568 nM + Dexamethasone 333.3333 nM) of the same compound?
Its value is “A (A = 0.0001 to <0.3)”.

What about the “combination index (CI)” value (Compound 1 1.234568 nM + Dexamethasone 1000 nM) of the same compound?
Its value is “A (A = 0.0001 to <0.3)”.

What about the “combination index (CI)” value (Compound 1 1.234568 nM + Dexamethasone 3000 nM) of the same compound?
The value was “A (A = 0.0001 to <0.3)”.

And the “combination index (CI)” value (Compound 1 3.703704 nM + Dexamethasone 1.371742 nM)?
The value was “B (B = 0.3 to <0.5)”.

And the “combination index (CI)” value (Compound 1 3.703704 nM + Dexamethasone 4.115226 nM)?
The value was “E (E = >1)”.

What about the “combination index (CI)” value (Compound 1 3.703704 nM + Dexamethasone 12.34568 nM) of the same compound?
The value was “E (E = >1)”.

And the “combination index (CI)” value (Compound 1 3.703704 nM + Dexamethasone 37.03704 nM)?
The value was “D (D = 0.7 to <1)”.

What about the “combination index (CI)” value (Compound 1 3.703704 nM + Dexamethasone 111.1111 nM) of the same compound?
The value was “A (A = 0.0001 to <0.3)”.

What about the “combination index (CI)” value (Compound 1 3.703704 nM + Dexamethasone 333.3333 nM) of the same compound?
Its value is “A (A = 0.0001 to <0.3)”.

And the “combination index (CI)” value (Compound 1 3.703704 nM + Dexamethasone 1000 nM)?
Its value is “A (A = 0.0001 to <0.3)”.

What about the “combination index (CI)” value (Compound 1 3.703704 nM + Dexamethasone 3000 nM) of the same compound?
The value was “A (A = 0.0001 to <0.3)”.

What about the “combination index (CI)” value (Compound 1 11.11111 nM + Dexamethasone 1.371742 nM) of the same compound?
The value was “B (B = 0.3 to <0.5)”.

What about the “combination index (CI)” value (Compound 1 11.11111 nM + Dexamethasone 4.115226 nM) of the same compound?
Its value is “E (E = >1)”.

What about the “combination index (CI)” value (Compound 1 11.11111 nM + Dexamethasone 12.34568 nM) of the same compound?
The value was “E (E = >1)”.

And the “combination index (CI)” value (Compound 1 11.11111 nM + Dexamethasone 37.03704 nM)?
Its value is “C (C = 0.5 to <0.7)”.

And the “combination index (CI)” value (Compound 1 11.11111 nM + Dexamethasone 111.1111 nM)?
The value was “A (A = 0.0001 to <0.3)”.

What about the “combination index (CI)” value (Compound 1 11.11111 nM + Dexamethasone 333.3333 nM) of the same compound?
Its value is “A (A = 0.0001 to <0.3)”.

What about the “combination index (CI)” value (Compound 1 11.11111 nM + Dexamethasone 1000 nM) of the same compound?
Its value is “A (A = 0.0001 to <0.3)”.

And the “combination index (CI)” value (Compound 1 11.11111 nM + Dexamethasone 3000 nM)?
Its value is “A (A = 0.0001 to <0.3)”.

What about the “combination index (CI)” value (Compound 1 33.33333 nM + Dexamethasone 1.371742 nM) of the same compound?
The value was “B (B = 0.3 to <0.5)”.

What about the “combination index (CI)” value (Compound 1 33.33333 nM + Dexamethasone 4.115226 nM) of the same compound?
The value was “B (B = 0.3 to <0.5)”.

What about the “combination index (CI)” value (Compound 1 33.33333 nM + Dexamethasone 12.34568 nM) of the same compound?
Its value is “D (D = 0.7 to <1)”.

And the “combination index (CI)” value (Compound 1 33.33333 nM + Dexamethasone 37.03704 nM)?
Its value is “A (A = 0.0001 to <0.3)”.

And the “combination index (CI)” value (Compound 1 33.33333 nM + Dexamethasone 111.1111 nM)?
Its value is “A (A = 0.0001 to <0.3)”.

What about the “combination index (CI)” value (Compound 1 33.33333 nM + Dexamethasone 333.3333 nM) of the same compound?
Its value is “A (A = 0.0001 to <0.3)”.

What about the “combination index (CI)” value (Compound 1 33.33333 nM + Dexamethasone 1000 nM) of the same compound?
Its value is “A (A = 0.0001 to <0.3)”.

What about the “combination index (CI)” value (Compound 1 33.33333 nM + Dexamethasone 3000 nM) of the same compound?
Its value is “A (A = 0.0001 to <0.3)”.

What about the “combination index (CI)” value (Compound 1 100 nM + Dexamethasone 1.371742 nM) of the same compound?
The value was “B (B = 0.3 to <0.5)”.

And the “combination index (CI)” value (Compound 1 100 nM + Dexamethasone 4.115226 nM)?
The value was “A (A = 0.0001 to <0.3)”.

And the “combination index (CI)” value (Compound 1 100 nM + Dexamethasone 12.34568 nM)?
The value was “C (C = 0.5 to <0.7)”.
